Converted amounts (≈) assume the structure as drawn.
Tested on: P. aeruginosa 26
Assay: In vitro antibacterial activity (MIC) by two-fold agar-plate dilution method
Type: cell-based
Settings: Pseudomonas aeruginosa, HI-agar, 37° C., 20 hours, read-out: MIC (minimal inhibitory concentration)
Protocol: Now in order to show the utility of the object compound [I], the test data on MIC (minimal inhibitory concentration) of representative compound [I] of this invention is shown in the following.
In vitro antibacterial activity was determined by the two-fold agar-plate dilution method as described below.
One loopful of an overnight culture of each test strain in Trypticase-soy broth (10^8 viable cells per ml) was streaked on heart infusion agar (HI-agar) containing graded concentrations of representative test compound, and the minimal inhibitory concentration (MIC) was expressed in terms of μg/ml after incubation at 37° C. for 20 hours.

SMILES: CO/N=C(\C(=O)N[C@@H]1C(=O)N2C(C(=O)[O-])=C(C[n+]3ccc(N)n3CCO)CS[C@H]12)c1csc(N)n1 [Test Compound (1), 7β-[2-(2-Aminothiazol-4-yl)-2-methoxyiminoacetamido]-3-[3-amino-2-(2-hydroxyethyl)-1-pyrazolio]methyl-3-cephem-4-carboxylate (syn isomer)]
- MIC: 0.39 µg/mL (≈ 0.746 µM)
